Data: patent US20070128217A1 (priority 2003, published 2007)

Columns and labels:
[1] = system: antibodies in sera from SARS patients (sera 1a, 1b, 2, 6, 37, 62, London, SARS-yellow, SARS-green); format: binding, human; parameters: Binding of serum 6 to linear peptides of protein X1 of SARS-CoV Urbani / Binding of serum 37 to linear peptides of protein X1 of SARS-CoV Urbani / Binding of serum 6 to looped/cyclic peptide (PEPSCAN-ELISA) / Binding of serum 37 to looped/cyclic peptide (PEPSCAN-ELISA) / Binding of serum 37 to looped/cyclic peptides of protein X1 of SARS-CoV Urbani / Binding of serum 6 to linear peptides of protein X2 / Binding of serum 37 to linear peptides of protein X2 / Binding of serum 37 to looped/cyclic peptides of protein X2 of SARS-CoV Urbani / Binding of serum 6 to linear peptides of protein M of SARS-CoV Urbani / Binding of serum 37 to linear peptides of protein M of SARS-CoV Urbani / Binding of serum 6 to looped/cyclic peptides of protein M of SARS-CoV Urbani / Binding of serum 37 to looped/cyclic peptides of protein M of SARS-CoV Urbani / Binding of serum 6 to linear peptides of protein X3 of SARS-CoV Urbani / Binding of serum 37 to linear peptides of protein X3 of SARS-CoV Urbani / Binding of serum 37 to looped/cyclic peptides of protein X3 of SARS-CoV Urbani / Binding of serum 6 to linear peptides of protein X4 of SARS-CoV Urbani / Binding of serum 37 to linear peptides of protein X4 of SARS-CoV Urbani / Binding of serum 37 to looped/cyclic peptides of protein X4 of SARS-CoV Urbani / Binding of serum 6 to linear peptides of protein X5 of SARS-CoV Urbani / Binding of serum 37 to linear peptides of protein X5 of SARS-CoV Urbani / Binding of serum 37 to looped/cyclic peptides of protein X5 of SARS-CoV Urbani / Binding of serum 6 to linear peptides of protein N of SARS-CoV Urbani / Binding of serum 37 to linear peptides of protein N of SARS-CoV Urbani / Binding of serum 6 to linear peptide (PEPSCAN-ELISA) / Binding of serum 1a to looped/cyclic peptides of protein N of SARS-CoV Urbani / Binding of serum 1b to looped/cyclic peptides of protein N of SARS-CoV Urbani / Binding of serum 2 to looped/cyclic peptides of protein N of SARS-CoV Urbani / Binding of serum 6 to looped/cyclic peptides of protein N of SARS-CoV Urbani / Binding of serum 37 to looped/cyclic peptides of protein N of SARS-CoV Urbani / Binding of serum 62 to looped/cyclic peptides of protein N of SARS-CoV Urbani / Binding of serum London to looped/cyclic peptides of protein N of SARS-CoV Urbani / Binding of serum SARS-green to looped/cyclic peptides of protein N of SARS-CoV Urbani: unit not given here
[2] = system: control sera (pooled serum of ten healthy LUMC hospital workers; commercial negative donor pooled serum from the Dutch bloodbank); format: binding, human; parameters: Binding of Control serum LUMC to linear peptides / Binding of Control serum Blood-bank to linear peptides / Binding of Control serum LUMC to looped peptides / Binding of Control Serum Blood-Bank to Looped peptides / Binding of Control serum LUMC to linear peptides of the protein M of SARS-CoV Urbani / Binding of Control serum Blood-bank to linear peptides of the protein M of SARS-CoV Urbani / Binding of Control serum LUMC to looped peptides of the protein M of SARS-CoV Urbani / Binding of Control Serum Blood-Bank to Looped peptides of the protein M of SARS-CoV Urbani: unit not given here
[3] = system: rabbit serum obtained by immunizing a rabbit with the SARS-CoV strain Frankfurt 1; format: binding; parameters: Binding of a rabbit serum to linear peptides / Binding of a rabbit serum to looped peptides / Rabbit serum linear peptides / Rabbit serum looped peptides / Binding of a rabbit serum to linear peptides of protein N of SARS-CoV Urbani (Rabbit serum linear peptides) / Binding of a rabbit serum to looped/cyclic peptides of protein N of SARS-CoV Urbani (Rabbit serum looped peptides): unit not given here
[4] = system: recombinant human anti-SARS-CoV antibody 03-018; format: binding; parameters: Binding of antibody 03-018 to linear peptides of the N protein of SARS-CoV Urbani / Binding of antibody 03-018 to looped/cyclic peptides of the N protein of SARS-CoV Urbani: unit not given here

Sequence | Binding of serum 1a to looped/cyclic peptides of protein N of SARS-CoV Urbani [1] | Binding of serum 1b to looped/cyclic peptides of protein N of SARS-CoV Urbani [1] | Binding of serum 2 to looped/cyclic peptides of protein N of SARS-CoV Urbani [1] | Binding of serum 6 to looped/cyclic peptides of protein N of SARS-CoV Urbani [1] | Binding of serum 37 to looped/cyclic peptides of protein N of SARS-CoV Urbani [1] | Binding of serum 62 to looped/cyclic peptides of protein N of SARS-CoV Urbani [1] | Binding of serum London to looped/cyclic peptides of protein N of SARS-CoV Urbani [1] | Binding of serum SARS-green to looped/cyclic peptides of protein N of SARS-CoV Urbani [1] | Binding of serum SARS-yellow to looped/cyclic peptides of protein N of SARS-CoV Urbani [1] | Binding of a rabbit serum to linear peptides of protein N of SARS-CoV Urbani (Rabbit serum linear peptides) [3] | Binding of a rabbit serum to looped/cyclic peptides of protein N of SARS-CoV Urbani (Rabbit serum looped peptides) [3] | Binding of antibody 03-018 to linear peptides of the N protein of SARS-CoV Urbani [4] | Binding of antibody 03-018 to looped/cyclic peptides of the N protein of SARS-CoV Urbani [4] | Binding of serum 1a to linear peptides of protein N of SARS-CoV Urbani [1] | Binding of serum 1b to linear peptides of protein N of SARS-CoV Urbani [1] | Binding of serum 2 to linear peptides of protein N of SARS-CoV Urbani [1] | Binding of serum 6 to linear peptides of protein N of SARS-CoV Urbani [1] | Binding of serum 37 to linear peptides of protein N of SARS-CoV Urbani [1] | Binding of serum 62 to linear peptides of protein N of SARS-CoV Urbani [1] | Binding of serum London to linear peptides of protein N of SARS-CoV Urbani [1] | also measured
LLLLDRLNQLESKVS | 0.2 | 0.1 | 0.2 | 0.1 | 0.4 | 0.2 | 0.3 | 0.2 | 0.0 | 0.1 | 0.0 | 0.2 | 0.2 |  |  |  |  |  |  |  | Binding of serum 1a to linear peptide (PEPSCAN-ELISA) [1]: 0.2; Binding of serum 1b to linear peptide (PEPSCAN-ELISA) [1]: 0.1; Binding of serum 2 to linear peptide (PEPSCAN-ELISA) [1]: 0.2; Binding of serum 6 to linear peptide (PEPSCAN-ELISA) [1]: 0.1; Binding of serum 37 to linear peptide (PEPSCAN-ELISA) [1]: 0.7; Binding of serum 62 to linear peptide (PEPSCAN-ELISA) [1]: 0.4; Binding of serum London to linear peptide (PEPSCAN-ELISA) [1]: 0.7; Binding of serum SARS-green to linear peptide (PEPSCAN-ELISA) [1]: 0.4; Binding of serum SARS-yellow to linear peptide (PEPSCAN-ELISA) [1]: 0.4; Binding of Control Serum Blood-Bank to Looped peptides [2]: 0.4; Binding of Control serum Blood-bank to linear peptides [2]: 0.7; Binding of Control serum LUMC to linear peptides [2]: 0.6; Binding of Control serum LUMC to looped peptides [2]: 0.4
LLNKHIDAYKTFPPT | 0.3 | 0.1 | 0.3 | 0.2 | 0.4 | 0.3 | 0.3 | 0.3 | 0.4 | 0.2 | 0.4 | 0.1 | 0.2 | 0.2 | 0.1 | 0.2 | 0.2 | 0.7 | 0.6 | 0.5 | Binding of serum SARS-green to linear peptides of protein N of SARS-CoV Urbani [1]: 0.5; Binding of serum SARS-yellow to linear peptides of protein N of SARS-CoV Urbani [1]: 0.6; Control Serum Blood-Bank Looped peptides [2]: 0.5; Control serum Blood-bank linear peptides [2]: 0.6; Control serum LUMC linear peptides [2]: 0.7; Control serum LUMC looped peptides [2]: 0.5
LPQRQKKQPTVTLLP |  |  |  |  |  |  |  |  |  | 0.2 | 0.7 | 0.1 | 0.3 | 0.2 | 0.2 | 0.3 | 0.1 | 0.7 | 0.7 | 0.5 | Binding of serum SARS-green to linear peptides of protein N of SARS-CoV Urbani [1]: 0.4; Binding of serum SARS-yellow to linear peptides of protein N of SARS-CoV Urbani [1]: 0.7; Recognition of the peptide by sera of SARS-CoV infected individuals, and form (linear, looped/cyclic) in which it is recognized [1]: recognized in looped/cyclic form; Control Serum Blood-Bank Looped peptides [2]: 0.8; Control serum Blood-bank linear peptides [2]: 0.8; Control serum LUMC linear peptides [2]: 0.7; Control serum LUMC looped peptides [2]: 0.7
LPYGANKEGIVWVAT | 0.5 | 0.3 | 0.6 | 0.4 | 0.9 | 0.8 | 0.5 | 0.4 | 0.4 | 0.2 | 0.6 | 0.1 | 0.2 | 0.2 | 0.2 | 0.3 | 0.2 | 0.7 | 0.7 | 0.5 | Binding of serum SARS-green to linear peptides of protein N of SARS-CoV Urbani [1]: 0.3; Binding of serum SARS-yellow to linear peptides of protein N of SARS-CoV Urbani [1]: 0.6; Binding of Control Serum Blood-Bank to Looped peptides [2]: 0.5; Binding of Control serum Blood-bank to linear peptides [2]: 0.7; Binding of Control serum LUMC to linear peptides [2]: 0.6; Binding of Control serum LUMC to looped peptides [2]: 0.6
LTQHGKEELRFPRGQ | 0.4 | 0.2 | 0.4 | 0.3 | 0.6 | 0.4 | 0.4 | 0.3 | 0.4 | 0.1 | 0.4 | 0.1 | 0.2 | 0.2 | 0.1 | 0.3 | 0.2 | 0.6 | 0.7 | 0.4 | Binding of serum SARS-green to linear peptides of protein N of SARS-CoV Urbani [1]: 0.3; Binding of serum SARS-yellow to linear peptides of protein N of SARS-CoV Urbani [1]: 0.6; Binding of Control Serum Blood-Bank to Looped peptides [2]: 0.6; Binding of Control serum Blood-bank to linear peptides [2]: 0.8; Binding of Control serum LUMC to linear peptides [2]: 0.6; Binding of Control serum LUMC to looped peptides [2]: 0.6
